Experimental data from patent US4528289A, “Corynantheine derivates, processes for their preparation, and their use” (Dr. Willmar Schwabe GmbH & Co., priority 1982, dated 1985).

Assays:
[1] = tested on: systolic blood pressure of spontaneously hypertonic rats; assay: systolic blood pressure of spontaneously hypertonic rats after oral administration; type: in vivo, rat; conditions: for systolic blood pressure, subsequent value / systolic blood pressure, Δ / systolic blood pressure, Δ %: 2 h
Excerpt: (§1) The blood pressure-lowering action of the compound THCN according to the present invention and of DHCN was investigated on spontaneously hypertonic rats after oral administration and compared with that of ajmalicine. The method thereby used for the measurement of the systolic blood pressure and of the heart rate on rats is described in Arzneimittel-Forschung, 18, 1285-1287/1968. Before commencement of the experiments, the animals were familiarised with the measurement procedure.
(§2) In a first series of experiments, the systolic blood pressure and the heart rate were investigated 2 hours after the oral administration of the test substances in the form of their hydrochlorides. The substances were suspended in 0.2% agar and administered in a volume of 10 ml./kg. It follows therefrom that all three substances lower the blood pressure in a dosage-dependent manner.

[2] = tested on: heart rate of spontaneously hypertonic rats; assay: heart rate of spontaneously hypertonic rats after oral administration; type: in vivo, rat; conditions: 2 h
Excerpt: as §1, §2

[3] = tested on: systolic blood pressure of spontaneously hypertonic rats; assay: chronological course of blood pressure decrease in spontaneously hypertonic rats; type: in vivo, rat
Excerpt: as §1
(§3) In a further series of experiments, the chronological course of the blood pressure lowering was investigated. For this purpose, spontaneously hypertonic rats were treated with 10 mg./kg. DHCN and with 5 or 10 mg./kg. THCN per os and in each case 6 or 12 animals of the treated group were measured at definite times after the treatment.

[4] = tested on: heart rate of spontaneously hypertonic rats; assay: chronological course of heart rate of spontaneously hypertonic rats; type: in vivo, rat; parameters: heart rate at time t: unit not given here
Excerpt: as §1, §3

CHCl3 arrhythmia = assay: inhibition of CHCl3 arrhythmia on mice, i.p.; type: in vivo
Excerpt: (§4) The antiarrhythmic effectiveness of DHCN and THCN was investigated on mice and rats.

[5] = acute toxicity, LD50 (Litchfield and Wilcoxon) on mice; type: in vivo; conditions: mouse, in vivo, mice
Excerpt: (§5) The toxicity of the compounds according to the present invention can be seen from the LD50 values given in the following Table 8 for intravenous, intraperitoneal and oral administration.

mice = assay: as above; type: in vivo; conditions: i.v., i.p. and oral LD50, mice
Excerpt: as §5

[6] = tested on: stereotypy brought about by apomorphine; assay: potentiation of apomorphine stereotypy in mice; type: in vivo; conditions: oral, same dosage range (10 to 20 mg/kg)
[7] = tested on: blood pressure, vessels, central nervous system; assay: general pharmacological action (statement in words); conditions: in vivo
[8] = tested on: aconitine-induced arrythmias; assay: protection against aconitine-induced arrhythmias in urethane-narcotised rats, i.v.; type: in vivo; conditions: 2 to 5 mg/kg (THCN)
Excerpt: as §4

[9] = tested on: heart rate of spontaneously hypertonic rats; assay: chronological course of heart rate of spontaneously hypertonic rats; type: in vivo, rat; parameters: unit not given here; conditions: 20 mg/kg, 4 h.
circulatory disturbances = conditions: known therapy of circulatory disturbances; cited from earlier work
[10] = 4 mg/kg p.o., dihydrocorynantheine
[11] = 8.6 mg/kg p.o., dihydrocorynantheine
[12] = 18 mg/kg p.o., dihydrocorynantheine
[13] = 32 mg/kg p.o., dihydrocorynantheine
[14] = 56 mg/kg p.o., dihydrocorynantheine
[15] = 18 mg/kg p.o., ajmalicine hydrochloride
[16] = 40 mg/kg p.o., ajmalicine hydrochloride
[17] = 56 mg/kg p.o., ajmalicine hydrochloride
[18] = 86 mg/kg p.o., ajmalicine hydrochloride
[19] = 100 mg/kg p.o., ajmalicine hydrochloride

## CC[C@H]1CN2CCc3c([nH]c4ccccc34)[C@@H]2C[C@@H]1/C(=C\OC)C(=O)OC [DHCN, dihydrocorynantheine]
[1]; [10]
  systolic blood pressure, subsequent value: 187 ± 6 mm Hg
  systolic blood pressure, Δ: -12.7 ± 7 mm Hg
  systolic blood pressure, Δ %: -5.8 ± 3.3%
[1]; [11]
  systolic blood pressure, subsequent value: 187 ± 5 mm Hg
  systolic blood pressure, Δ: -13 ± 9 mm Hg
  systolic blood pressure, Δ %: -6.2 ± 4.0%
[1]; [12]
  systolic blood pressure, subsequent value: 181 ± 3 mm Hg
  systolic blood pressure, Δ: -21 ± 5 mm Hg
  systolic blood pressure, Δ %: -10.1 ± 2.1%
[1]; [13]
  systolic blood pressure, subsequent value: 175 ± 10 mm Hg
  systolic blood pressure, Δ: -29 ± 8 mm Hg
  systolic blood pressure, Δ %: -14.6 ± 4.1%
[1]; [14]
  systolic blood pressure, subsequent value: 152 ± 6 mm Hg
  systolic blood pressure, Δ: -41 ± 5 mm Hg
  systolic blood pressure, Δ %: -21.4 ± 2.7%
[2]; [10]
  heart rate, subsequent value: 485 ± 14 beats/min.
  heart rate, Δ: 6 ± 20 beats/min.
  heart rate, Δ %: 1.5 ± 4.2%
[2]; [11]
  heart rate, subsequent value: 442 ± 19 beats/min.
  heart rate, Δ: -30 ± 18 beats/min.
  heart rate, Δ %: -6.2 ± 3.7%
[2]; [12]
  heart rate, subsequent value: 492 ± 12 beats/min.
  heart rate, Δ %: -0.6 ± 2.9%
[2]; [13]
  heart rate, subsequent value: 477 ± 5 beats/min.
  heart rate, Δ: -16 ± 11 beats/min.
  heart rate, Δ %: -3.1 ± 2.2%
[2]; [14]
  heart rate, subsequent value: 502 ± 14 beats/min.
  heart rate, Δ: 3 ± 21 beats/min.
  heart rate, Δ %: 2.9%
[3]; 10 mg/kg p.o., 10 min.
  percentage decrease of blood pressure: 10.6%
[3]; 10 mg/kg p.o., 20 min.
  percentage decrease of blood pressure: 14.5%
[3]; 10 mg/kg p.o., 40 min.
  percentage decrease of blood pressure: 14.5%
[3]; 10 mg/kg p.o., 80 min.
  percentage decrease of blood pressure: 6.1%
[3]; 10 mg/kg p.o., 2 h.
  percentage decrease of blood pressure: 3.7%
[3]; 10 mg/kg p.o., 4 h.
  percentage decrease of blood pressure: 0.8%
[3]; 10 mg/kg p.o., 6 h.
  percentage decrease of blood pressure: 1.4%
[3]; DHCN 10 mg/kg vs THCN 5 mg/kg p.o.
  blood pressure lowering action compared (in words): the same action
[3]; DHCN 10 mg/kg, THCN 5 mg/kg p.o.
  time of maximum blood pressure lowering: about 40 minutes
[3]; DHCN 10 mg/kg, THCN 5 mg/kg p.o., after about 40 minutes
  blood pressure after the maximum (in words): the blood pressure again increases to the initial value
[4]; 10 mg/kg p.o., 10 min.
  heart rate at time t: 504
[4]; 10 mg/kg p.o., 20 min.
  heart rate at time t: 515
[4]; 10 mg/kg p.o., 40 min.
  heart rate at time t: 500
[4]; 10 mg/kg p.o., 80 min.
  heart rate at time t: 516
[4]; 10 mg/kg p.o., 2 h.
  heart rate at time t: 521
[4]; 10 mg/kg p.o., 4 h.
  heart rate at time t: 517
[4]; 10 mg/kg p.o., 6 h.
  heart rate at time t: 507
[4]; DHCN 10 mg/kg, THCN 10 mg/kg, on the border of statistical significance
  heart rate change (in words): an increase is to be observed
CHCl3 arrhythmia; 10 mg/kg
  inhibition in % of CHCl3 arrhythmia: 0%
CHCl3 arrhythmia; 15 mg/kg
  inhibition in % of CHCl3 arrhythmia: 10%
CHCl3 arrhythmia; 25 mg/kg
  inhibition in % of CHCl3 arrhythmia: 80%
[5]; ip
  LD50: 98 mg/kg
[5]; iv
  LD50: 13 mg/kg
[5]; po
  LD50: 210 mg/kg
mice
  toxicities compared (in words): almost the same
[6]
  properties influencing the central nervous system (in words): no properties influencing the central nervous system
[7]
  period and strength of activity compared with ajmalicine (in words): greater than those of the known comparison compound ajmalicine

## COC(=O)C1=CO[C@@H](C)[C@H]2CN3CCc4c([nH]c5ccccc45)[C@@H]3C[C@H]12 [ajmalicine, reference compound]
[1]; [15]
  systolic blood pressure, subsequent value: 198 ± 7 mm Hg
  systolic blood pressure, Δ: -12 ± 2 mm Hg
  systolic blood pressure, Δ %: -5.6 ± 1%
[1]; [16]
  systolic blood pressure, subsequent value: 173 ± 7 mm Hg
  systolic blood pressure, Δ: -25 ± 6 mm Hg
  systolic blood pressure, Δ %: -12.4 ± 3%
[1]; [17]
  systolic blood pressure, subsequent value: 172 ± 4 mm Hg
  systolic blood pressure, Δ: -37 ± 5 mm Hg
  systolic blood pressure, Δ %: -17.5 ± 2.1%
[1]; 56 mg/kg, not exceeded with dosages up to 100 mg/kg
  maximum blood pressure lowering: about 18%
[1]; [18]
  systolic blood pressure, subsequent value: 165 ± 11 mm Hg
  systolic blood pressure, Δ: -36 ± 12 mm Hg
  systolic blood pressure, Δ %: -17.7 ± 6.1%
[1]; [19]
  systolic blood pressure, subsequent value: 165 ± 5 mm Hg
  systolic blood pressure, Δ: -33 ± 9 mm Hg
  systolic blood pressure, Δ %: -16.3 ± 4%
[2]; [15]
  heart rate, subsequent value: 492 ± 27 beats/min.
  heart rate, Δ: 30 ± 15 beats/min.
  heart rate, Δ %: 7.3 ± 4.3%
[2]; [16]
  heart rate, subsequent value: 513 ± 11 beats/min.
  heart rate, Δ: 51 ± 19 beats/min.
  heart rate, Δ %: 11.9 ± 4.4%
[2]; [17]
  heart rate, subsequent value: 522 ± 9 beats/min.
  heart rate, Δ: 4 beats/min.
  heart rate, Δ %: 0.8 ± 1.6%
[2]; [18]
  heart rate, subsequent value: 511 ± 4 beats/min.
  heart rate, Δ: 14 ± 2 beats/min.
  heart rate, Δ %: 2.9 ± 2.0%
[2]; [19]
  heart rate, subsequent value: 515 ± 9 beats/min.
  heart rate, Δ: 26 ± 11 beats/min.
  heart rate, Δ %: 5.3%
[3]; 20 mg/kg, 10 min.
  percentage decrease of blood pressure: 9.5%
[3]; 20 mg/kg, 20 min.
  percentage decrease of blood pressure: 13.0%
[3]; 20 mg/kg, 40 min.
  percentage decrease of blood pressure: 14.2%
[3]; 20 mg/kg, 80 min.
  percentage decrease of blood pressure: 9.8%
[3]; 20 mg/kg, 2 h.
  percentage decrease of blood pressure: 5.8%
[3]; 20 mg/kg, 4 h.
  percentage decrease of blood pressure: -1.2%
[3]; 20 mg/kg, 6 h.
  percentage decrease of blood pressure: -0.5%
[4]; 20 mg/kg, 10 min.
  heart rate at time t: 503
[4]; 20 mg/kg, 20 min.
  heart rate at time t: 505
[4]; 20 mg/kg, 40 min.
  heart rate at time t: 482
[4]; 20 mg/kg, 80 min.
  heart rate at time t: 481
[4]; 20 mg/kg, 2 h.
  heart rate at time t: 472
[4]; 20 mg/kg, 6 h.
  heart rate at time t: 491
CHCl3 arrhythmia
  antiarrhythmic effectiveness, chloroform arrythmias (in words): no antiarrythmic effectiveness
CHCl3 arrhythmia; 25 mg/kg
  inhibition in % of CHCl3 arrhythmia: 0%
[8]
  antiarrhythmic effectiveness, aconitine-induced arrythmias (in words): no antiarrythmic effectiveness
[5]; ip
  LD50: 90 mg/kg
[5]; iv
  LD50: 14 mg/kg
[5]; po
  LD50: 360 mg/kg
mice
  toxicities compared (in words): almost the same
[6]
  properties influencing the central nervous system (in words): no properties influencing the central nervous system
[9]
  heart rate at time t: 499
Circulatory disturbances
  period of activity (in words): relatively short period of activity
